Tests used:
Format in all cases: in vivo
[1] = system: Italian ryegrass (Lolium mutiflorum); assay: Test C preemergence, visual plant response rating; settings: Test C, 0 is no effect, 100 is complete control
Method in brief: (§1)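 Seeds sown in a loam–sand blend got a directed preemergence soil spray; postemergence plants (2–10 cm, one- to two-leaf stage) were sprayed with compound in a non-phytotoxic solvent plus surfactant. Injury was scored visually against untreated controls after about 10 d in a greenhouse on a 0–100 scale (100 = complete control).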

[2] = system: barnyardgrass (Echinochloa crus-galli); assay: Test C preemergence, visual plant response rating; settings: Test C, 0 is no effect, 100 is complete control
Method in brief: as §1

[3] = system: foxtail, giant (giant foxtail, Setaria faberi); assay: Test C preemergence, visual plant response rating; settings: Test C, 0 is no effect, 100 is complete control
Method in brief: as §1

kochia (Bassia scoparia) [4] = assay: Test C preemergence, visual plant response rating; settings: Test C, 0 is no effect, 100 is complete control
Method in brief: as §1

[5] = system: pigweed (Amaranthus retroflexus); assay: Test C preemergence, visual plant response rating; settings: Test C, 0 is no effect, 100 is complete control
Method in brief: as §1

[6] = system: ragweed (common ragweed, Ambrosia artemisiifolia); assay: Test C preemergence, visual plant response rating; settings: Test C, 0 is no effect, 100 is complete control
Method in brief: as §1

[7] = system: Italian ryegrass (Lolium mutiflorum); assay: Test C postemergence, visual plant response rating
Method in brief: as §1

[8] = system: barnyardgrass (Echinochloa crus-galli); assay: Test C postemergence, visual plant response rating
Method in brief: as §1

[9] = system: blackgrass (Alopecurus myosuroides); assay: Test C postemergence, visual plant response rating
Method in brief: as §1

corn (Zea mays) = assay: Test C postemergence, visual plant response rating
Method in brief: as §1

[10] = system: foxtail, giant (giant foxtail, Setaria faberi); assay: Test C postemergence, visual plant response rating
Method in brief: as §1

[11] = system: galium (catchweed bedstraw, Galium aparine); assay: Test C postemergence, visual plant response rating
Method in brief: as §1

kochia (Bassia scoparia) [12] = assay: Test C postemergence, visual plant response rating
Method in brief: as §1

[13] = system: pigweed (Amaranthus retroflexus); assay: Test C postemergence, visual plant response rating
Method in brief: as §1

[14] = system: ragweed (common ragweed, Ambrosia artemisiifolia); assay: Test C postemergence, visual plant response rating
Method in brief: as §1

[15] = system: wheat (Triticum aestivum); assay: Test C postemergence, visual plant response rating
Method in brief: as §1

[16] = system: barnyardgrass (Echinochloa crus-galli); assay: Test D flooded paddy test, visual plant response rating; settings: 250 g ai/ha, scale 0 to 100 (0 no effect, 100 complete control), 13 to 15 d
Method in brief: (§2)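 Greenhouse paddy assay scored on a 0–100 visual scale after 13 to 15 d, where 100 means complete control and a dash marks no result; dosing was into 3 cm floodwater over 2-leaf plants.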

[17] = system: duck salad (Heteranthera limosa); assay: as above; settings: 250 g ai/ha, scale 0 to 100 (0 no effect, 100 complete control), 13 to 15 d
Method in brief: as §2

rice (Oryza sativa) = assay: as above; settings: 250 g ai/ha, scale 0 to 100 (0 no effect, 100 complete control), 13 to 15 d
Method in brief: as §2

[18] = system: sedge umbrella (small-flower umbrella sedge, Cyperus difformis); assay: as above; settings: 250 g ai/ha, scale 0 to 100 (0 no effect, 100 complete control), 13 to 15 d
Method in brief: as §2

[19] = Test C, postemergence, 125 g ai/ha

| SMILES | Ryegrass, Italian plant response rating (0 to 100 scale) ([1]; 31 g ai/ha) | Ryegrass, Italian plant response rating (0 to 100 scale) ([1]; 125 g ai/ha) | Barnyardgrass plant response rating (0 to 100 scale) ([2]; 31 g ai/ha) | Barnyardgrass plant response rating (0 to 100 scale) ([2]; 125 g ai/ha) | Foxtail, Giant plant response rating (0 to 100 scale) ([3]; 31 g ai/ha) | Foxtail, Giant plant response rating (0 to 100 scale) ([3]; 125 g ai/ha) | Kochia plant response rating (0 to 100 scale) (kochia (Bassia scoparia) [4]; 31 g ai/ha) | Kochia plant response rating (0 to 100 scale) (kochia (Bassia scoparia) [4]; 125 g ai/ha) | Pigweed plant response rating (0 to 100 scale) ([5]; 31 g ai/ha) | Pigweed plant response rating (0 to 100 scale) ([5]; 125 g ai/ha) | Ragweed plant response rating (0 to 100 scale) ([6]; 31 g ai/ha) | Ragweed plant response rating (0 to 100 scale) ([6]; 125 g ai/ha) | Ryegrass, Italian plant response rating (0 to 100 scale) ([7]; Postemergence, 31 g ai/ha) | Ryegrass, Italian plant response rating (0 to 100 scale) [7, 19] | Barnyardgrass plant response rating (0 to 100 scale) ([8]; Postemergence, 31 g ai/ha) | Barnyardgrass plant response rating (0 to 100 scale) [8, 19] | Blackgrass plant response rating (0 to 100 scale) ([9]; Postemergence, 31 g ai/ha) | Blackgrass plant response rating (0 to 100 scale) [9, 19] | Corn plant response rating (0 to 100 scale) (corn (Zea mays); Postemergence, 31 g ai/ha) | Corn plant response rating (0 to 100 scale) (corn (Zea mays); [19]) | also measured |
| --- | --- | --- | --- | --- | --- | --- | --- | --- | --- | --- | --- | --- | --- | --- | --- | --- | --- | --- | --- | --- | --- |
| CCO/N=C(/c1c(O)cnn(C)c1=O)c1ccc(F)c2ccccc12 [Compound 270] | 0 | 10 | 0 | 0 | 0 | 20 | 0 | 0 | 0 | 0 | 0 | 10 | 0 | 10 | 0 | 0 | 0 | 30 | 0 | 0 | Foxtail, Giant plant response rating (0 to 100 scale) ([10]; Postemergence, 31 g ai/ha): 0; Foxtail, Giant plant response rating (0 to 100 scale) [10, 19]: 10; Galium plant response rating (0 to 100 scale) ([11]; Postemergence, 31 g ai/ha): 50; Galium plant response rating (0 to 100 scale) [11, 19]: 80; Kochia plant response rating (0 to 100 scale) (kochia (Bassia scoparia) [12]; Postemergence, 31 g ai/ha): 20; Kochia plant response rating (0 to 100 scale) (kochia (Bassia scoparia) [12]; [19]): 30; Pigweed plant response rating (0 to 100 scale) ([13]; Postemergence, 31 g ai/ha): 80; Pigweed plant response rating (0 to 100 scale) [13, 19]: 50; Ragweed plant response rating (0 to 100 scale) ([14]; Postemergence, 31 g ai/ha): 20; Ragweed plant response rating (0 to 100 scale) [14, 19]: 70; Wheat plant response rating (0 to 100 scale) ([15]; Postemergence, 31 g ai/ha): 0; Wheat plant response rating (0 to 100 scale) [15, 19]: 0; Plant response rating, Barnyardgrass (Flood) [16]: 0; Plant response rating, Ducksalad (Flood) [17]: 0; Plant response rating, Rice (Flood) (rice (Oryza sativa)): 0; Plant response rating, Sedge, Umbrella (Flood) [18]: 0 |
| CO/N=C(\c1cccc(Br)c1)c1c(O)c(C)nn(C)c1=O [Compound 239] | 10 | 50 | 0 | 0 | 0 | 10 | 0 | 10 | 0 | 10 | 10 | 50 | 50 | 60 | 10 | 30 | 0 | 0 | 0 | 0 | Foxtail, Giant plant response rating (0 to 100 scale) ([10]; Postemergence, 31 g ai/ha): 0; Foxtail, Giant plant response rating (0 to 100 scale) [10, 19]: 20; Galium plant response rating (0 to 100 scale) ([11]; Postemergence, 31 g ai/ha): 70; Galium plant response rating (0 to 100 scale) [11, 19]: 90; Kochia plant response rating (0 to 100 scale) (kochia (Bassia scoparia) [12]; Postemergence, 31 g ai/ha): 40; Kochia plant response rating (0 to 100 scale) (kochia (Bassia scoparia) [12]; [19]): 60; Pigweed plant response rating (0 to 100 scale) ([13]; Postemergence, 31 g ai/ha): 20; Pigweed plant response rating (0 to 100 scale) [13, 19]: 60; Ragweed plant response rating (0 to 100 scale) ([14]; Postemergence, 31 g ai/ha): 50; Ragweed plant response rating (0 to 100 scale) [14, 19]: 70; Wheat plant response rating (0 to 100 scale) ([15]; Postemergence, 31 g ai/ha): 0; Wheat plant response rating (0 to 100 scale) [15, 19]: 0; Plant response rating, Barnyardgrass (Flood) [16]: 0; Plant response rating, Ducksalad (Flood) [17]: 0; Plant response rating, Rice (Flood) (rice (Oryza sativa)): 0; Plant response rating, Sedge, Umbrella (Flood) [18]: 0 |
| C=CCON=C(c1cc(Cl)cc(Cl)c1Cl)c1c(O)c(C)nn(C)c1=O [Compound 294] | 60 | 100 | 70 | 100 | 70 | 100 | 0 | 50 | 20 | 80 | 70 | 100 | 50 | 100 | 20 | 60 | 0 | 0 | 0 | 10 | Foxtail, Giant plant response rating (0 to 100 scale) ([10]; Postemergence, 31 g ai/ha): 40; Foxtail, Giant plant response rating (0 to 100 scale) [10, 19]: 60; Galium plant response rating (0 to 100 scale) ([11]; Postemergence, 31 g ai/ha): 80; Galium plant response rating (0 to 100 scale) [11, 19]: 100; Kochia plant response rating (0 to 100 scale) (kochia (Bassia scoparia) [12]; Postemergence, 31 g ai/ha): 20; Kochia plant response rating (0 to 100 scale) (kochia (Bassia scoparia) [12]; [19]): 30; Pigweed plant response rating (0 to 100 scale) ([13]; Postemergence, 31 g ai/ha): 20; Pigweed plant response rating (0 to 100 scale) [13, 19]: 20; Ragweed plant response rating (0 to 100 scale) ([14]; Postemergence, 31 g ai/ha): 80; Ragweed plant response rating (0 to 100 scale) [14, 19]: 100; Wheat plant response rating (0 to 100 scale) ([15]; Postemergence, 31 g ai/ha): 0; Wheat plant response rating (0 to 100 scale) [15, 19]: 60; Plant response rating, Barnyardgrass (Flood) [16]: 0; Plant response rating, Ducksalad (Flood) [17]: 0; Plant response rating, Rice (Flood) (rice (Oryza sativa)): 0; Plant response rating, Sedge, Umbrella (Flood) [18]: 0 |
| CO/N=C(\c1c(O)c(Cl)nn(C)c1=O)c1ccc(F)c2ccccc12 [Compound 208] | 10 | 70 | 0 | 80 | 50 | 90 | 0 | 20 | 40 | 100 | 60 | 100 | 30 | 80 | 30 | 60 | 0 | 30 | 0 | 10 | Foxtail, Giant plant response rating (0 to 100 scale) ([10]; Postemergence, 31 g ai/ha): 20; Foxtail, Giant plant response rating (0 to 100 scale) [10, 19]: 60; Galium plant response rating (0 to 100 scale) ([11]; Postemergence, 31 g ai/ha): 90; Galium plant response rating (0 to 100 scale) [11, 19]: 100; Kochia plant response rating (0 to 100 scale) (kochia (Bassia scoparia) [12]; Postemergence, 31 g ai/ha): 50; Kochia plant response rating (0 to 100 scale) (kochia (Bassia scoparia) [12]; [19]): 70; Pigweed plant response rating (0 to 100 scale) ([13]; Postemergence, 31 g ai/ha): 30; Pigweed plant response rating (0 to 100 scale) [13, 19]: 40; Ragweed plant response rating (0 to 100 scale) ([14]; Postemergence, 31 g ai/ha): 100; Ragweed plant response rating (0 to 100 scale) [14, 19]: 100; Wheat plant response rating (0 to 100 scale) ([15]; Postemergence, 31 g ai/ha): 0; Wheat plant response rating (0 to 100 scale) [15, 19]: 0; Plant response rating, Barnyardgrass (Flood) [16]: 0; Plant response rating, Ducksalad (Flood) [17]: 0; Plant response rating, Rice (Flood) (rice (Oryza sativa)): 0; Plant response rating, Sedge, Umbrella (Flood) [18]: 0 |
